Laboratory results reported in patent US11530227B2, “Heterocyclic compounds and their use in preventing or treating bacterial infections” (MUTABILIS, priority 2018, dated 2022).
pIC50: −log10 of the molar value. Structures can show the parent of a compound that is named as a salt. Where two headings read alike, the source gives them in different places.

Columns and labels:
[1] = target: T1, AmpC P. aeruginosa (Pseudomonas aeruginosa, UniProt P24735); test: biochemical
T1 construct: made in house; host or cells: E. coli

[2] = target: T2, OXA-48 (Klebsiella pneumoniae, UniProt Q6XEC0); test: biochemical
T2 construct: made in house; host or cells: E. coli

[3] = target: T3, OXA-1 (Escherichia coli, UniProt P13661); test: biochemical
T3 construct: made in house; host or cells: E. coli

[4] = target: P99 AmpC (Enterobacter cloacae, UniProt P05364); test: biochemical
[5] = target: T4, OXA-11 (Pseudomonas aeruginosa, UniProt Q06778); test: biochemical
T4 construct: made in house; host or cells: E. coli

[6] = target: T5, SHV-1 (Klebsiella pneumoniae, UniProt P0AD64); test: biochemical
T5 construct: made in house; host or cells: E. coli

[7] = target: T6, TEM-1 (Escherichia coli, UniProt P62593); test: β-lactamase inhibitory activity, nitrocefin hydrolysis; format: biochemical
T6 construct: made in house; host or cells: E. coli

[8] = target: T7, OXA-15 (Pseudomonas aeruginosa, UniProt Q51574); test: biochemical
T7 construct: made in house; host or cells: E. coli

[9] = target: T8, KPC-2 (Klebsiella pneumoniae, UniProt Q9F663); test: biochemical
T8 construct: made in house; host or cells: E. coli

[10] = target: T9, CTX-M-15 (Escherichia coli, UniProt Q9EXV5); test: biochemical
T9 construct: made in house; host or cells: E. coli

[11] = system: E. coli ECO 190317; test: MIC of compounds alone, broth microdilution (CLSI); details: Escherichia coli, ECO190317, read-out: MIC alone
[12] = class (D), nitrocefin 200 μM, 30 min pre-incubation, room temperature, read-out: BLA IC50 OXA-48
[13] = class (D), nitrocefin 200 μM, 30 min pre-incubation, room temperature, read-out: BLA IC50 OXA-1
[14] = class (A), nitrocefin 200 μM, 30 min pre-incubation, room temperature, read-out: BLA IC50 TEM-1
[15] = class (A), nitrocefin 200 μM, 30 min pre-incubation, room temperature, read-out: BLA IC50 KPC-2
[16] = class (A), nitrocefin 200 μM, 30 min pre-incubation, room temperature, read-out: BLA IC50 CTX-M-15
[17] = class (C), nitrocefin 200 μM, 30 min pre-incubation, room temperature, read-out: BLA IC50 AmpC (PAE)

SMILES | pIC50 [1] | pIC50 [2, 12] | pIC50 [3, 13] | pIC50 [4] | pIC50 [5] | pIC50 [6] | pIC50 [7, 14] | pIC50 [8] | pIC50 [9, 15] | pIC50 [10, 16] | MIC [11] [µg/mL] | pIC50 [1, 17] | pIC50 [7] | pIC50 [2] | pIC50 [3] | pIC50 [9] | pIC50 [10]
CCOC(=O)[C@@H]1c2c(sc3ccccc23)[C@@H]2CN1C(=O)N2OS(=O)(=O)[O-].[Na+] (relative stereo) [Example 2, sulfate] | 8.60 | 9.18 | 7.43 | 9.29 | 8.66 | 9.37 | 9.66 | 6.08 | 9.03 | 8.59 |  |  |  |  |  |  | 
CCOC(=O)[C@@H]1c2c(sc3ccccc23)[C@@H]2CN1C(=O)N2OS(=O)(=O)[O-].[Na+] (relative stereo) [Example 2] |  |  |  |  |  |  |  |  |  |  | > 32 |  |  |  |  |  | 
NC(=O)[C@@H]1c2c(sc3ccccc23)[C@@H]2CN1C(=O)N2OS(=O)(=O)[O-].[Na+] (relative stereo) [Example 3, sulfate] |  | 8.32 | 6.72 | 8.35 | 7.51 | 8.66 | 8.89 | 5.15 | 8.03 | 8.60 |  | 7.21 |  |  |  |  | 
NC(=O)[C@@H]1c2c(sc3ccccc23)[C@@H]2CN1C(=O)N2OS(=O)(=O)[O-].[Na+] (relative stereo) [Example 3] |  |  |  |  |  |  |  |  |  |  | 8 |  |  |  |  |  | 
CCOC(=O)[C@@H]1c2c(n(C)c3ccccc23)[C@@H]2CN1C(=O)N2OS(=O)(=O)[O-].[Na+] (relative stereo) [Example 6, sulfate] |  | 8.34 | 5.89 | 8.70 | 6.80 | 9.60 | 9.70 | 5.19 | 8.38 | 8.82 |  | 8.44 |  |  |  |  | 
CCOC(=O)[C@@H]1c2c(n(C)c3ccccc23)[C@@H]2CN1C(=O)N2OS(=O)(=O)[O-].[Na+] (relative stereo) [Example 6] |  |  |  |  |  |  |  |  |  |  | > 32 |  |  |  |  |  | 
CC(C)(O/N=C(\C(=O)N[C@@H]1C(=O)N2C(C(=O)[O-])=C(C[n+]3ccccc3)CS[C@H]12)c1csc(N)n1)C(=O)O [CAZ, Ceftazidime, reference compound] |  |  |  |  |  |  |  |  |  |  | 128 |  |  |  |  |  | 
O=C1N2Cc3c(sc4ccccc34)C(C2)N1OS(=O)(=O)[O-].[Na+] (stereo not drawn) [Example 1, Sodium (2,5-methano-3-oxo-1,5-dihydrobenzothiopheno[2,3-e][1,3]diazepin-4-yl) sulfate] | 8.06 | 8.96 | 6.92 | 7.77 | 7.39 | 8.39 | 9.19 | 5.47 | 7.59 | 9.00 | 16 |  |  |  |  |  | 
O=C1N2Cc3nc4ccccc4cc3C(C2)N1OS(=O)(=O)[O-].[Na+] (stereo not drawn) [Example 4, sodium 1,4-methano-3-oxo-1,5-dihydro-[1,3]diazepino[5,6-b]quinolin-2-yl) sulfate] |  | 8.82 | 5.39 | 6.92 | 6.23 | 6.82 | 7.44 | 4.89 | 6.43 | 8.00 |  | 5.55 |  |  |  |  | 
O=C1N2Cc3nc4ccccc4cc3C(C2)N1OS(=O)(=O)[O-].[Na+] (stereo not drawn) [Example 4] |  |  |  |  |  |  |  |  |  |  | 8 |  |  |  |  |  | 
O=C1N2Cc3nc4cnccc4cc3C(C2)N1OS(=O)(=O)[O-].[Na+] (stereo not drawn) [Example 5, sodium (1,4-methano-3-oxo-1,5-dihydro-[1,3]diazepino[5,6-b][1,7]naphthyridin-2-yl) sulfate] |  | 9.00 | 5.77 | 7.00 | 6.72 | 7.11 | 7.85 | 5.74 | 6.80 | 7.85 | 4 | 5.44 |  |  |  |  | 
CCN(CC)C(=O)N1CCc2sc3c(c2C1)CN1CC3N(OS(=O)(=O)O)C1=O (stereo not drawn) [Example 7, sodium [9-(diethylcarbamoyl)-2,5-methano-3-oxo-5,7,8,10-tetrahydro-1H-pyrido[3,4]thieno[1,3-d][1,3]diazepin-4-yl] sulfate] |  | 8.17 | 5.29 |  | 6.96 | 7.89 |  | 4.85 | 7.59 | 8.89 | > 32 | 6.26 | 7.37 |  |  |  | 
O=C1N2Cc3c(sc4c3CNCC4)C(C2)N1OS(=O)(=O)O (stereo not drawn) [Example 8, (2,5-methano-3-oxo-1,5,7,8,9,10-hexahydropyrido[2,3]thieno[2,4-d][1,3]diazepin-4-yl) hydrogen Sulfate] |  | 7.74 | 4.82 | 5.80 | 6.08 | 7.59 | 8.02 | 4.52 | 5.89 | 8.21 | 1 | 5.07 |  |  |  |  | 
Cn1c2c(c3scnc31)C1CN(C2)C(=O)N1OS(=O)(=O)O (stereo not drawn) [Example 9, sodium (6,9-methano-4-methyl-7-oxo-5,9-dihydrothiazolo[3,4]pyrrolo[1,3-d][1,3]diazepin-8-yl) sulfate] | 6.23 |  |  | 6.92 | 7.21 | 9.24 |  | 6.03 |  |  | > 32 |  | 9.31 | 8.92 | 6.54 | 7.59 | 8.96
